Read-outs that look alike come from different tables or passages of the source.
Tests used:
[1] = tested on: jejunal mucosal 5-HT in mice (C57 BL6); test: Intestinal 5-HT depletion assay (Example B, single 150 mg/kg oral dose); type: in vivo, mouse; settings: one day after oral administration of a single 150 mg/kg dose, P-value class (ANOVA)
Description: The efficacy of the TPH1 inhibitors of the invention was assessed for the ability to decrease intestinal serotonin concentration in mice. Mice (C57 BL6) were administered a single 150 mg/kg dose of test article by oral gavage. Each animal was euthanized by exsanguination under isoflurane anesthesia. Jejunal intestinal mucosa was isolated and homogenized in 300 μL of a buffer containing 0.3M trichloroacetic acid, 0.1M sodium acetate, 10 mM EDTA, 20 mM sodium bisulfate and 50 mM ascorbic acid. Following centrifugation the 5-HT levels in the supernatants were measured by HPLC. The remaining mucosal pellet was solubilized overnight at 37° C. in a 0.1% sodium dodecyl sulfate buffer in 0.1N NaOH followed by determination of protein concentrations using a BCA protein assay (Pierce, Rockford, Ill. 5-HT levels were normalized to protein and data were expressed as mean percent reduction of mucosal 5-HT levels relative to vehicle control SEM (percent 5-HT reduction). All animal studies were carried out with protocols approved by the Institutional Animal Care and Use Committee.
P-values, indicating statistical significance of the data (ANOVA) are provided in the table: * refers to P<0.05, ** refers to P<0.01, *** refers to P<0.005, and refers to P<0.0005.

[2] = target: T1, Recombinant human TPH1 (MBP tagged) (Homo sapiens, UniProt P17752); test: TPH1 in vitro inhibition assay (kinetic fluorescence); type: biochemical
T1 construct: cloning full length human TPH1 cDNA in to a bacterial pMAL-c5E expression vector; made in house; host or cells: E. coli BL21 (DE3)
T1 sequence (P17752 1-444): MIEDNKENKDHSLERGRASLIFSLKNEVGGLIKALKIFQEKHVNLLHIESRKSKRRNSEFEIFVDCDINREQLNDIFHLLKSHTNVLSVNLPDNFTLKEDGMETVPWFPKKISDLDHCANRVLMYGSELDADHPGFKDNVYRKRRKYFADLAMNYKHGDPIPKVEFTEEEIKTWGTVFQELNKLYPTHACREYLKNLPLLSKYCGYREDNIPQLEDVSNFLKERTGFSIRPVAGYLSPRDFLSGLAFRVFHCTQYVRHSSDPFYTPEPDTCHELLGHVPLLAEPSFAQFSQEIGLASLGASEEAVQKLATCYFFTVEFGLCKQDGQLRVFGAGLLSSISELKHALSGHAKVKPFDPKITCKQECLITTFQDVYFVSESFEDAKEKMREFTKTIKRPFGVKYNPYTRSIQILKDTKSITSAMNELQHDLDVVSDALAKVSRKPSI
Summary of the method: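 Final mix: 15 nM MBP-TPH1, 30 μM Trp, 36 μM 6-methyltetrahydropterin, 25 μM ferrous ammonium sulfate, 50 mM MES pH 7.1, 1% DMSO, room temperature.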

[3] = read-out: TPH1 Range (TPH1 inhibition IC50)
[4] = TPH1 Range (TPH1 inhibition IC50)

Row | IC50 [2, 3] | Compound | Efficacy (statistical significance of reduction of mucosal 5-HT concentrations relative to vehicle) [1] | IC50 [2, 4]
1 | < 50 nM | Cc1ccn(-c2cc(-c3ccncc3)ccc2[C@@H](Oc2cc(N3CCC4(CC3)CN[C@H](C(=O)O)C4)nc(N)n2)C(F)(F)F)n1 [Example 1g, (S)-8-(2-amino-6-((R)-2,2,2-trifluoro-1-(2-(3-methyl-1H-pyrazol-1-yl)-4-(pyridin-4-yl)phenyl)ethoxy)pyrimidin-4-yl)-2,8-diazaspiro[4.5]decane-3-carboxylic acid] | *** (*** refers to P<0.005) | 
2 | < 50 nM | Cc1ccn(-c2cc(-c3cnn(C)c3)ccc2[C@@H](Oc2cc(N3CCC4(CC3)CN[C@H](C(=O)O)C4)nc(N)n2)C(F)(F)F)n1 [Example 1h, (S)-8-(2-amino-6-((R)-2,2,2-trifluoro-1-(2-(3-methyl-1H-pyrazol-1-yl)-4-(1-methyl-1H-pyrazol-4-yl)phenyl)ethoxy)pyrimidin-4-yl)-2,8-diazaspiro[4.5]decane-3-carboxylic acid] | ** (** refers to P<0.01) | 
3 | < 50 nM | Cc1ccn(-c2cc(-c3ccc4c(C)n[nH]c4c3)ccc2[C@@H](Oc2cc(N3CCC4(CC3)CN[C@H](C(=O)O)C4)nc(N)n2)C(F)(F)F)n1 [Example 1o, (S)-8-(2-amino-6-((R)-2,2,2-trifluoro-1-(4-(3-methyl-1H-indazol-6-yl)-2-(3-methyl-1H-pyrazol-1-yl)phenyl)ethoxy)pyrimidin-4-yl)-2,8-diazaspiro[4.5]decane-3-carboxylic acid] | ** (** refers to P<0.01) | 
4 | < 50 nM | Cc1ccn(-c2cc(-c3ccc(C(C)(C)C)cc3)ccc2[C@@H](Oc2cc(N3CCC4(CC3)CN[C@H](C(=O)O)C4)nc(N)n2)C(F)(F)F)n1 [Example 1p, (S)-8-(2-amino-6-((R)-1-(4′-(tert-butyl)-3-(3-methyl-1H-pyrazol-1-yl)-[1,1′-biphenyl]-4-yl)-2,2,2-trifluoroethoxy)pyrimidin-4-yl)-2,8-diazaspiro[4.5]decane-3-carboxylic acid] | ** (** refers to P<0.01) | 
5 | < 50 nM | CC(=O)NCCc1ccc(-c2ccc([C@@H](Oc3cc(N4CCC5(CC4)CN[C@H](C(=O)O)C5)nc(N)n3)C(F)(F)F)c(-n3ccc(C)n3)c2)cc1 [Example 1y, (S)-8-(6-((R)-1-(4′-(2-acetamidoethyl)-3-(3-methyl-1H-pyrazol-1-yl)-[1,1′-biphenyl]-4-yl)-2,2,2-trifluoroethoxy)-2-aminopyrimidin-4-yl)-2,8-diazaspiro[4.5]decane-3-carboxylic acid] | ** (** refers to P<0.01) | 
6 | 50 to 300 nM | COc1ccc([C@@H](Oc2cc(N3CCC4(CC3)CNC(C(=O)O)C4)nc(N)n2)C(F)(F)F)c(-n2ccc(C)n2)c1 (stereo partly drawn) [Example 10j, 8-(2-amino-6-((R)-2,2,2-trifluoro-1-(4-methoxy-2-(3-methyl-1H-pyrazol-1-yl)phenyl)ethoxy)pyrimidin-4-yl)-2,8-diazaspiro[4.5]decane-3-carboxylic acid] | **** (and refers to P<0.0005) | 
7 | 50 to 300 nM | Cc1ccn(-c2ccc(Cl)cc2[C@@H](Oc2cc(N3CCC4(CC3)CNC(C(=O)O)C4)nc(N)n2)C(F)(F)F)n1 (stereo partly drawn) [Example 10k, 8-(2-amino-6-((R)-1-(5-chloro-2-(3-methyl-1H-pyrazol-1-yl)phenyl)-2,2,2-trifluoroethoxy)pyrimidin-4-yl)-2,8-diazaspiro[4.5]decane-3-carboxylic acid] | * (* refers to P<0.05) | 
8 | 50 to 300 nM | Cc1ccc([C@@H](Oc2cc(N3CCC4(CC3)CN[C@H](C(=O)O)C4)nc(N)n2)C(F)(F)F)c(-n2ccc(C)n2)n1 [Example 11, (S)-8-(2-amino-6-((R)-2,2,2-trifluoro-1-(6-methyl-2-(3-methyl-1H-pyrazol-1-yl)pyridin-3-yl)ethoxy)pyrimidin-4-yl)-2,8-diazaspiro[4.5]decane-3-carboxylic acid] | **** (and refers to P<0.0005) | 
9 | < 50 nM | CCCc1ccc([C@@H](Oc2cc(N3CCC4(CC3)CN[C@H](C(=O)O)C4)nc(N)n2)C(F)(F)F)c(-n2ccc(C)n2)c1 [Example 12b, (S)-8-(2-amino-6-((R)-2,2,2-trifluoro-1-(2-(3-methyl-1H-pyrazol-1-yl)-4-propylphenyl)ethoxy)pyrimidin-4-yl)-2,8-diazaspiro[4.5]decane-3-carboxylic acid] | * (* refers to P<0.05) | 
10 | 300 to 3000 nM | Cc1ccn(-c2cc(C(=O)O)ccc2[C@@H](Oc2cc(N3CCC4(CC3)CN[C@H](C(=O)O)C4)nc(N)n2)C(F)(F)F)n1 [Example 16, (S)-8-(2-amino-6-((R)-1-(4-carboxy-2-(3-methyl-H-pyrazol-1-yl)phenyl)-2,2,2-trifluoroethoxy)pyrimidin-4-yl)-2,8-diazaspiro[4.5]decane-3-carboxylic acid] | ** (** refers to P<0.01) | 
11 | < 50 nM | CCCCc1ccc(-n2ccc(C)n2)c([C@@H](Oc2cc(N3CCC4(CC3)CN[C@H](C(=O)O)C4)nc(N)n2)C(F)(F)F)c1 [Example 22c, (S)-8-(2-amino-6-((R)-1-(5-butyl-2-(3-methyl-1H-pyrazol-1-yl)phenyl)-2,2,2-trifluoroethoxy)pyrimidin-4-yl)-2,8-diazaspiro[4.5]decane-3-carboxylic acid] | * (* refers to P<0.05) | 
12 | 50 to 300 nM | Nc1nc(O[C@H](c2ccc(Cl)cc2-c2ccc(Cl)s2)C(F)(F)F)cc(N2CCC3(CC2)CN[C@H](C(=O)O)C3)n1 [Example 34s, (S)-8-(2-amino-6-((R)-1-(4-chloro-2-(5-chlorothiophen-2-yl)phenyl)-2,2,2-trifluoroethoxy)pyrimidin-4-yl)-2,8-diazaspiro[4.5]decane-3-carboxylic acid] | ** (** refers to P<0.01) | 
13 |  | Nc1nc(O[C@H](c2ccc(Cl)cc2-c2cccc(S(N)(=O)=O)c2)C(F)(F)F)cc(N2CCC3(CC2)CN[C@H](C(=O)O)C3)n1 [Example 34u, (S)-8-(2-amino-6-((R)-1-(5-chloro-3′-sulfamoyl-[1,1′-biphenyl]-2-yl)-2,2,2-trifluoroethoxy)pyrimidin-4-yl)-2,8-diazaspiro[4.5]decane-3-carboxylic acid] | * (* refers to P<0.05) | < 50 nM
14 | < 50 nM | Nc1nc(O[C@H](c2ccc(Cl)cc2-c2cccc(O)c2)C(F)(F)F)cc(N2CCC3(CC2)CN[C@H](C(=O)O)C3)n1 [Example 34v, (S)-8-(2-amino-6-((R)-1-(5-chloro-3′-hydroxy-[1,1′-biphenyl]-2-yl)-2,2,2-trifluoroethoxy)pyrimidin-4-yl)-2,8-diazaspiro[4.5]decane-3-carboxylic acid] | * (* refers to P<0.05) | 
15 |  | CS(=O)(=O)c1cccc(-c2cc(Cl)ccc2[C@@H](Oc2cc(N3CCC4(CC3)CN[C@H](C(=O)O)C4)nc(N)n2)C(F)(F)F)c1 [Example 34w, (S)-8-(2-amino-6-((R)-1-(5-chloro-3′-(methylsulfonyl)-[1,1′-biphenyl]-2-yl)-2,2,2-trifluoroethoxy)pyrimidin-4-yl)-2,8-diazaspiro[4.5]decane-3-carboxylic acid] | *** (*** refers to P<0.005) | < 50 nM
16 | 50 to 300 nM | COc1cccc(-c2ccc(C(Oc3cc(N4CCC5(CC4)CN[C@H](C(=O)O)C5)nc(N)n3)C(F)(F)F)cc2)c1 (stereo partly drawn) [Example 55al, (3S)-8-(2-amino-6-(2,2,2-trifluoro-1-(3′-methoxy-[1,1′-biphenyl]-4-yl)ethoxy)pyrimidin-4-yl)-2,8-diazaspiro[4.5]decane-3-carboxylic acid] | * (* refers to P<0.05) | 

Reference: patent publication US11759462B2, “Spirocyclic compounds as tryptophan hydroxylase inhibitors” (priority 2013, dated 2023)
